Measurements from patent US20130267549A1, “Use of Pyrimidylaminobenzamide Derivatives for the Treatment of Fibrosis” (NOVARTIS AG, priority 2009, published 2013).

System: Rat Bleomycin Model
Test: Rat bleomycin model of lung fibrosis: histological analysis of interstitial collagen deposition (Picrosirius red stain)
Assay type: in vivo
Details: co-administration with bleomycin, relative area and intensity of interstitial collagen (manual score), FIG. 1
Procedure: Appl. Pharmacol. (1992)116:30-7). Another well-established model for lung fibrosis is the rat bleomycin model published by E. White et al, Am J Respir Crit Care Med. 2006, 173: 112-121.
A histological analysis of levels of collagen deposition in the lung interstitium, as determined using Picrosirius red stain, for bleomycin alone as well as combinations of bleomycin and several other compounds, including AMN107, was performed. As depicted in FIG. 1 showing the levels of interstitial collagen in lung tissue as determined histologically using Picrosirius red stain (statistical analysis: Man Whitney rank sum test), co-administration of AMN107 can reduce the effect of bleomycin by more than 50%.

Cc1cn(-c2cc(NC(=O)c3ccc(C)c(Nc4nccc(-c5cccnc5)n4)c3)cc(C(F)(F)F)c2)cn1 [AMN107, 4-methyl-3-[[4-(3-pyridinyl)-2-pyrimidinyl]amino]-N-[5-(4-methyl-1H-imidazol-1-yl)-3-(trifluoromethyl)phenyl]benzamide]
reduction of the effect of bleomycin on levels of interstitial collagen in lung tissue: more than 50%
